Data from US8227422B2, “Peptides and compounds that bind to a receptor” (Glaxosmithkline LLC, priority 1996, dated 2012).
Like-named read-outs stand apart in the source and are kept apart here. Where a SMILES comes first, the peptide text is derived from it.

How the values were obtained:
[1] = target: T1, human TPO-R (transfected Ba/F3 cells) (Homo sapiens, UniProt P40238); test: Thrombopoietin dependent cell proliferation assay (MTT), TPO-R transfected Ba/F3 cells; type: cell-based
T1 construct: Murine IL-3 dependent Ba/F3 cells were transfected with full length human TPO-R; expressed in transfected cells; host or cells: murine Ba/F3 cells
T1 sequence (P40238 26-635): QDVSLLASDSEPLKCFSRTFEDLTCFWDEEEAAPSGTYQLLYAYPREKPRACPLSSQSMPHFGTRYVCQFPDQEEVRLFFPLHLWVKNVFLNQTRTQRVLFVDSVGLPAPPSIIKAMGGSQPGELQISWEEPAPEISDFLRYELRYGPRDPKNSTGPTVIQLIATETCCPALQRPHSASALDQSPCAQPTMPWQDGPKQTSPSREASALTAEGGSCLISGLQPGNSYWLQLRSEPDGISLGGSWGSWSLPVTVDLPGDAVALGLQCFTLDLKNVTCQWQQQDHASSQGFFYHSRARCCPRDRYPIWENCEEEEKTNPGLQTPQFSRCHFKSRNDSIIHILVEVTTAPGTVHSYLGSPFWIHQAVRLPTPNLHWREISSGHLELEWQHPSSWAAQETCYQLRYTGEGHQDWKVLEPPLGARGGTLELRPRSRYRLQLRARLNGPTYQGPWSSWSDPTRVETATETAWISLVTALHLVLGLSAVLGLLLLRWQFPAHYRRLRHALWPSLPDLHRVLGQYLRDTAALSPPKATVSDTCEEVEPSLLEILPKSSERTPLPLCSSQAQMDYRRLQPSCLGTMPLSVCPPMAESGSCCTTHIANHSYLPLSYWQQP
Experimental: Bioactivity of the peptides can be measured using a thrombopoietin dependent cell proliferation assay. Murine IL-3 dependent Ba/F3 cells were transfected with full length human TPO-R. In the absence of IL-3 (WEHI-3 conditioned media), these cells are dependent on TPO for proliferation.
The cells were grown in complete RPMI-10 media, containing 10% WEHI-3 conditioned media, then washed twice in PBS, resuspended in media which lacked WEHI-3 conditioned media, and added to wells containing dilutions of peptide or TPO at 2×10^4 cells/well. The cells were incubated for 48 hours at 37° C. in a humidified 5% CO2 atmosphere and metabolic activity was assayed by the reduction of MTT to formazan, with absorbance at 570 nm measured on an ELISA plate reader.

TPO receptor = target: T2, TPO receptor (Homo sapiens, UniProt P40238); test: Microphysiometer assay: rate of acidification of extracellular medium on TPO receptor stimulation; type: cell-based
T2 sequence (P40238 26-635): T1 sequence (P40238 26-635)
Experimental: In this example cyclized compounds were subjected to three assays. […] Finally, a microphysiometer (Molecular Devices Corp.) assay was performed. […] The ranges for EC50 are symbolically indicated as for IC50 described above.

[2] = Table 4, cyclized compounds, read-out: EC50 (nM) Proliferation
[3] = Table 4, cyclized compounds, microphysiometer, read-out: EC50 (nM) Microonys

EC50 [1, 2]	EC50 (TPO receptor; [3])	Structure (SMILES)	further results
< 500 nM	< 500 nM	CC[C@H](C)[C@@H]1NC(=O)[C@H](Cc2c[nH]c3ccccc23)NC(=O)[C@H](CCC(=O)O)NC(=O)[C@H](CCCNC(=N)N)NC(=O)[C@H](CC(C)C)NC(=O)[C@H]([C@@H](C)O)NC(=O)[C@@H]2CCCN2C(=O)CNC(=O)[C@H](CC(=O)O)NC(=O)[C@H](C)NC(=O)[C@@H](N)CCSSC[C@@H](C(N)=O)NC(=O)[C@H](Cc2ccccc2)NC(=O)[C@H](CO)NC1=O (HELM PEPTIDE1{[N[C@@H](CCS[*:3])C(=O)[*:2]].A.D.G.P.T.L.R.E.W.I.S.F.C.[am]}$PEPTIDE1,PEPTIDE1,1:R3-14:R3$$$V2.0)	
< 500 nM	< 500 nM	CC[C@H](C)[C@@H]1NC(=O)[C@H](Cc2c[nH]c3ccccc23)NC(=O)[C@H](CCC(=O)O)NC(=O)[C@H](CCCNC(=N)N)NC(=O)[C@H](CC(C)C)NC(=O)[C@H]([C@@H](C)O)NC(=O)[C@@H]2CCCN2C(=O)CNC(=O)[C@H](CC(=O)O)NC(=O)[C@H](C)NC(=O)CSC[C@@H](C(N)=O)NC(=O)[C@H](Cc2ccccc2)NC(=O)[C@H](CO)NC1=O (HELM PEPTIDE1{[O=C(C[*:3])[*:2]].A.D.G.P.T.L.R.E.W.I.S.F.C.[am]}$PEPTIDE1,PEPTIDE1,1:R3-14:R3$$$V2.0)	
< 200000 nM	< 200000 nM	CC[C@H](C)[C@@H]1NC(=O)[C@H](Cc2c[nH]c3ccccc23)NC(=O)[C@H](CCC(=O)O)NC(=O)[C@H](CCCNC(=N)N)NC(=O)[C@H](CC(C)C)NC(=O)[C@H]([C@@H](C)O)NC(=O)[C@@H]2CCCN2C(=O)CNC(=O)[C@H](CC(=O)O)NC(=O)[C@H](C)NC(=O)[C@@H](N)C(C)(C)SSC(C)(C)[C@@H](C(N)=O)NC(=O)[C@H](Cc2ccccc2)NC(=O)[C@H](CO)NC1=O (HELM PEPTIDE1{[Pen].A.D.G.P.T.L.R.E.W.I.S.F.[Pen].[am]}$PEPTIDE1,PEPTIDE1,1:R3-14:R3$$$V2.0)	

Second part, the molecule before the results:

Structure (SMILES)	EC50 [1, 2]	EC50 (TPO receptor; [3])	further results
CCCC1SC[C@@H](C(N)=O)NC(=O)[C@H](Cc2ccccc2)NC(=O)[C@H](CO)NC(=O)[C@H]([C@@H](C)CC)NC(=O)[C@H](Cc2c[nH]c3ccccc23)NC(=O)[C@H](CCC(=O)O)NC(=O)[C@H](CCCNC(=N)N)NC(=O)[C@H](CC(C)C)NC(=O)[C@H]([C@@H](C)O)NC(=O)[C@@H]2CCCN2C(=O)CNC(=O)[C@H](CC(=O)O)NC(=O)[C@H](C)NC1=O (stereo partly drawn) (HELM PEPTIDE1{A.D.G.P.T.L.R.E.W.I.S.F.C.[am]}|CHEM1{[CCCC(C(=O)[*:1])[*:2]]}$PEPTIDE1,CHEM1,1:R1-1:R1|PEPTIDE1,CHEM1,13:R3-1:R2$$$V2.0)	< 500 nM	< 200000 nM	
CC[C@H](C)[C@@H]1NC(=O)[C@H](Cc2c[nH]c3ccccc23)NC(=O)[C@H](CCC(=O)O)NC(=O)[C@H](CCCNC(=N)N)NC(=O)[C@H](CC(C)C)NC(=O)[C@H]([C@@H](C)O)NC(=O)[C@@H]2CCCN2C(=O)CNC(=O)[C@H](CC(=O)O)NC(=O)[C@H](C)NC(=O)[C@@H](N)CCC(=O)NCCCC[C@@H](C(N)=O)NC(=O)[C@H](Cc2ccccc2)NC(=O)[C@H](CO)NC1=O (HELM PEPTIDE1{E.A.D.G.P.T.L.R.E.W.I.S.F.K.[am]}$PEPTIDE1,PEPTIDE1,1:R3-14:R3$$$V2.0)	< 200000 nM	< 200000 nM	
CC[C@H](C)[C@@H]1NC(=O)[C@H](Cc2c[nH]c3ccccc23)NC(=O)[C@H](CCC(=O)O)NC(=O)[C@H](CCCNC(=N)N)NC(=O)[C@H](CC(C)C)NC(=O)[C@H]([C@@H](C)O)NC(=O)[C@@H]2CCCN2C(=O)CNC(=O)[C@H](CC(=O)O)NC(=O)[C@H](C)NC(=O)[C@@H](N)CCCCNC(=O)CC[C@@H](C(N)=O)NC(=O)[C@H](Cc2ccccc2)NC(=O)[C@H](CO)NC1=O (HELM PEPTIDE1{K.A.D.G.P.T.L.R.E.W.I.S.F.E.[am]}$PEPTIDE1,PEPTIDE1,1:R3-14:R3$$$V2.0)	< 200000 nM	< 200000 nM	
CC(C)C[C@H](NC(=O)[C@H](Cc1c[nH]c2ccccc12)NC(=O)[C@H](CCC(N)=O)NC(=O)[C@H](CCCNC(=N)N)NC(=O)[C@H](CC(C)C)NC(=O)[C@@H](NC(=O)[C@@H]1CCCN1C(=O)CNC(=O)[C@H](CSSC[C@H](NC(=O)[C@H](CCC(N)=O)NC(=O)[C@@H](NC(=O)[C@@H](N)CO)C(C)C)C(=O)NCC(=O)N1CCC[C@H]1C(=O)N[C@H](C(=O)N[C@@H](CC(C)C)C(=O)N[C@@H](CCCNC(=N)N)C(=O)N[C@@H](CCC(N)=O)C(=O)N[C@@H](Cc1c[nH]c2ccccc12)C(=O)N[C@@H](CC(C)C)C(=O)N[C@@H](C)C(=O)N[C@@H](C)C(=O)N[C@@H](CCCNC(=N)N)C(=O)N[C@@H](CC(N)=O)C(=O)N[C@@H](Cc1c[nH]cn1)C(=O)N[C@@H](CC(C)C)C(=O)N[C@@H](CO)C(N)=O)[C@@H](C)O)NC(=O)[C@H](CCC(N)=O)NC(=O)[C@@H](NC(=O)[C@@H](N)CO)C(C)C)[C@@H](C)O)C(=O)N[C@@H](C)C(=O)N[C@@H](C)C(=O)N[C@@H](CCCNC(=N)N)C(=O)N[C@@H](CC(N)=O)C(=O)N[C@@H](Cc1c[nH]cn1)C(=O)N[C@@H](CC(C)C)C(=O)N[C@@H](CO)C(N)=O (HELM PEPTIDE1{S.V.Q.C.G.P.T.L.R.Q.W.L.A.A.R.N.H.L.S.[am]}|PEPTIDE2{S.V.Q.C.G.P.T.L.R.Q.W.L.A.A.R.N.H.L.S.[am]}$PEPTIDE1,PEPTIDE2,4:R3-4:R3$$$V2.0; bridges inferred)			EC50 ([1]; Table 7, dimer compounds, read-out: EC50 (nM) Prolif.): < 500 nM; EC50 (TPO receptor; Table 7, dimer compounds, read-out: EC50 (nM) Microonys.): < 500 nM
CC[C@H](C)[C@@H]1NC(=O)[C@H](Cc2c[nH]c3ccccc23)NC(=O)[C@H](CCC(=O)O)NC(=O)[C@H](CCCNC(=N)N)NC(=O)[C@H](CC(C)C)NC(=O)[C@H]([C@@H](C)O)NC(=O)[C@@H]2CCCN2C(=O)CNC(=O)[C@H](CC(=O)O)NC(=O)[C@H](C)NC(=O)[C@H](N)CSSC[C@H](C(N)=O)NC(=O)[C@H](Cc2ccccc2)NC(=O)[C@H](CO)NC1=O (HELM PEPTIDE1{[dC].A.D.G.P.T.L.R.E.W.I.S.F.[dC].[am]}$PEPTIDE1,PEPTIDE1,1:R3-14:R3$$$V2.0)	< 200000 nM	< 200000 nM	
CC[C@H](C)[C@@H]1NC(=O)[C@H](Cc2c[nH]c3ccccc23)NC(=O)[C@H](CCC(=O)O)NC(=O)[C@H](CCCNC(=N)N)NC(=O)[C@H](CC(C)C)NC(=O)[C@H]([C@@H](C)O)NC(=O)[C@@H]2CCCN2C(=O)CNC(=O)[C@H](CC(=O)O)NC(=O)[C@H](C)NC(=O)CSC[C@@H](C(=O)O)NC(=O)[C@H](Cc2ccccc2)NC(=O)[C@H](CO)NC1=O [free acid form] (HELM PEPTIDE1{[O=C(C[*:3])[*:2]].A.D.G.P.T.L.R.E.W.I.S.F.C}$PEPTIDE1,PEPTIDE1,1:R3-14:R3$$$V2.0)			EC50 ([1]; Table 6, read-out: EC50 (nM) Cell Prolif.): < 500 nM; EC50 (TPO receptor; Table 6, value in parentheses, read-out: EC50 (nM), microphysiometer results in parentheses): < 200000 nM
